From PubChem BioAssay (NCI)
Where “and” joins values, the source holds several entries; their conditions need not be identical. Equal values may be shown once.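 Dose response: 5 concentrations. Exposure: 48 h. Format: 96-well plates. Endpoint: linear interpolation; highest concentration if not reached. GI50 marks 50% less growth. TGI: concentration producing complete growth inhibition.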

Tests used:
Assay in all cases: NCI tumour cell line growth inhibition, 48 h
A549 NSCLC = system: A549 NSCLC
UO-31 renal = system: UO-31 renal
SNB-75 CNS = system: SNB-75 CNS
M14 melanoma = system: M14 melanoma
NCI-H460 lung = system: NCI-H460 lung
SN12C renal = system: SN12C renal
HL-60(TB) leukemia = system: HL-60(TB) leukemia
MCF7 breast = system: MCF7 breast
MALME-3M melanoma = system: MALME-3M melanoma
NCI/ADR-RES ovarian = system: NCI/ADR-RES ovarian
MDA-MB-435 = system: MDA-MB-435
MDA-N = system: MDA-N

| Structure (SMILES) | TGI (A549 NSCLC) | TGI (UO-31 renal) [µM] | TGI (SNB-75 CNS) [µM] | TGI (M14 melanoma) | TGI (NCI-H460 lung) [µM] | TGI (SN12C renal) [µM] | TGI (HL-60(TB) leukemia) [µM] | TGI (MCF7 breast) [µM] | TGI (MALME-3M melanoma) [µM] | TGI (NCI/ADR-RES ovarian) [µM] | TGI (MDA-MB-435) | TGI (MDA-N) | GI50 (MALME-3M melanoma) | GI50 (SNB-75 CNS) | GI50 (SN12C renal) | GI50 (NCI/ADR-RES ovarian) | GI50 (MDA-MB-435) | GI50 (MDA-N) |
| --- | --- | --- | --- | --- | --- | --- | --- | --- | --- | --- | --- | --- | --- | --- | --- | --- | --- | --- |
| COC1=C(OC)C(=O)c2cc(SC)c(=O)c(SC)cc2C1=O | 43.8 µM | 40.5 | 28.1 | 32.6 µM | > 100 | 28.7 | 3.97 |  |  |  |  |  |  |  |  |  |  |  |
| COC(=O)CC[N+]1([O-])CC1 | > 100 µM | > 100 | > 100 | > 100 µM | > 100 | > 100 | > 100 | > 100 | > 100 | > 100 | > 100 µM |  |  |  |  |  |  |  |
| COc1cc2c(cc1C)NC(=O)/C2=C\c1cccnc1 | 71.7 µM | 39.5 | 50.2 | 77 µM | 85.4 | 37.8 | > 100 | 47.8 | 30.2 | 36.8 | 50.1 µM |  |  |  |  |  |  |  |
| COc1cccc2c1C(=O)c1c(O)c3c(c(O)c1C2=O)CC(O)(C(C)=O)CC3OC1CC([N+](C)(C)C)C(O)C(C)O1 (stereo not given) | > 100 µM | > 100 | > 100 | > 100 µM | > 100 | > 100 | > 100 |  | > 100 |  |  |  |  |  |  |  |  |  |
| O=S(=O)(O)c1cc(S(=O)(=O)O)c2c(N=Nc3ccccc3)c(O)ccc2c1 | > 100 µM | > 100 | > 100 | > 100 µM |  | > 100 |  |  |  | > 100 | > 100 µM | > 100 µM |  |  |  |  |  |  |
| COc1nc(N)nc2c1n(C)c[n+]2C | > 100 µM | > 100 | > 100 | > 100 µM | > 100 | > 100 | > 100 |  | > 100 | > 100 | > 100 µM | > 100 µM |  |  |  |  |  |  |
| COC(=O)CC(SCCO)SCCO | > 100 µM | > 100 | > 100 | > 100 µM | > 100 | > 100 | > 100 |  | > 100 | > 100 | > 100 µM | > 100 µM |  |  |  |  |  |  |
| CC[C@@]1(O)C(=O)OCc2c1cc1n(c2=O)Cc2c-1nc1ccccc1c2C=Nc1ccc(N[C@@H]2c3cc4c(cc3[C@@H](c3cc(OC)c(O)c(OC)c3)[C@H]3C(=O)OC[C@@H]32)OCO4)cc1 | 15.6 µM and 1.84 µM | 1.52 |  | 0.742 µM and 0.253 µM |  |  | > 100 |  |  |  | 12.5 µM and > 100 µM | 27.6 µM and 3.4 µM | 0.676 µM and 0.155 µM | 0.0498 µM and < 0.0169 µM | 0.0291 µM and 0.0101 µM | 0.0449 µM and < 0.01 µM | 0.295 µM and 0.188 µM | 0.351 µM and 0.0613 µM |
| C=CCN1C(=O)/C(=C/c2ccccc2)N=C1SC/C=C/C | > 100 µM | > 100 | > 100 | > 100 µM | > 100 | > 100 |  | > 100 |  | > 100 | > 100 µM |  |  |  |  |  |  |  |
| Cc1ccc(-n2nnc3c(NNc4ccccc4)n[nH]c(=O)c32)cc1 | > 100 µM |  | > 100 | > 100 µM | > 100 | > 100 | > 100 | > 100 | > 100 | > 100 | > 100 µM |  |  |  |  |  |  |  |
| CC1=CC(=C(c2ccc(N)c(C)c2)c2ccc(N)c(C)c2)C=CC1=N | 28.6 µM | 84.9 | 8.91 | 18.3 µM | > 31.6 | 4.31 | 17.5 |  | 11.2 |  |  |  |  |  |  |  |  |  |
| N#Cc1cccc(Nc2ccccc2SSc2ccccc2Nc2cccc(C#N)c2)c1 | > 21.5 µM |  | > 21.5 | 18.6 µM | 12.8 | > 21.5 | 14.8 | 16.5 | 15.8 | 19.7 | 18.2 µM |  |  |  |  |  |  |  |
| CC[N+](C)(C)c1ccc(C(=C2C=CC(=[N+](C)C)C=C2)c2ccc(N(C)C)cc2)cc1 | > 100 µM | 70.1 | 33.8 | 31.4 µM | 22.4 | > 100 | 6 |  | 66.3 |  |  |  |  |  |  |  |  |  |
| Cc1ccc([N+](=O)[O-])cc1S(=O)(=O)Nc1ccc(C2=NOC(c3ccccc3)C2)cc1 (stereo not given) | > 100 µM | 72.1 | 70.3 | 18.1 µM | 29.1 | 71.7 | 25.2 | 16.5 | 68.2 | 67.3 |  | 6.38 µM |  |  |  |  |  |  |
| CC12CC(=O)OC(Cc3ccccc31)O2 (stereo not given) | > 100 µM | > 100 | > 100 | > 100 µM | > 100 | > 100 | > 100 |  | > 100 |  |  |  |  |  |  |  |  |  |
| CCCCn1c(C)c(C)c2c1NN=C(C#N)S2(=O)=O | > 100 µM | > 100 | > 100 | > 100 µM | > 100 | > 100 |  | > 100 | > 100 | > 100 | > 100 µM |  |  |  |  |  |  |  |
| CC(SC(=S)N1CCCC1)C(=O)Nc1nnc(-c2ccc(Cl)cc2)o1 (stereo not given) | > 100 µM | 63.9 | > 100 | 37.1 µM | > 100 | 59.9 | 0.143 | > 100 | 84.2 | > 100 | > 100 µM |  |  |  |  |  |  |  |
| N/C(=N\Nc1cccc(Cl)c1)c1cccnc1 | > 100 µM | > 55.7 | 99.7 | 59.2 µM | > 100 | > 100 | > 66.9 | > 100 | > 100 | > 100 | > 30.1 µM |  |  |  |  |  |  |  |
